{"source": "patent US20060189608A1", "about": "“Methods for treating ocular angiogenesis, retinal edema, retinal ischemia, and diabetic retinopathy using selective RTK inhibitors” (Alcon, Inc., priority 2005, published 2006)", "origin": "cited, not measured here", "key": {"diabetic macular edema": {"tested_on": "diabetic macular edema", "conditions": "human patients with diabetic macular edema, cited from earlier work"}, "[1]": {"tested_on": "preretinal and choroidal NV", "conditions": "oral administration, mice; cited from earlier work"}}, "data": [{"smiles": "CO[C@@H]1[C@H](N(C)C(=O)c2ccccc2)C[C@H]2O[C@]1(C)n1c3ccccc3c3c4c(c5c6ccccc6n2c5c31)C(=O)NC4", "note": "[PKC-412]", "values": [{"measurement": "macular edema and visual acuity", "setting": "diabetic macular edema; pilot results", "value": "a reduction in macular edema and an improvement in visual acuity"}, {"measurement": "liver toxicity", "setting": "diabetic macular edema", "value": "concerns related to liver toxicity halted the clinical trials"}, {"measurement": "effect on preretinal and choroidal NV", "setting": "[1]", "value": "inhibited both preretinal and choroidal NV in mice"}]}]}
